Laboratory results as given in PubChem BioAssay AID1963852 (Molecular Pharmacology Branch, DTP, NCI, 2024).

Test system: 282377-053-R-J1-PDC complex spheroid viability
Assay: Anticancer human tumor 282377-053-R-J1-PDC patient-derived colon adenocarcinoma cell line growth inhibition [POLQ]
Details: for IC50: curve of first compound; for viability, T/C: stronger effect = lower value
In short: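 Growth inhibition in 3D: complex spheroids (tumor PDC, HUVEC, MSC) treated with POLQ inhibitor combinations; where Cmax unknown, highest tested concentration 10 microM, except SN-38 at 1 microM.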

[1] = second compound 0.0316 µM, first compound 0.0316 µM
[2] = second compound 0.0316 µM, first compound 0.1 µM
[3] = second compound 0.0316 µM, first compound 0.316 µM
[4] = second compound 0.0316 µM, first compound 1 µM
[5] = second compound 0.0316 µM, first compound 3.16 µM
[6] = second compound 0.0316 µM, first compound 10 µM
[7] = second compound 0.1 µM, first compound 0.0316 µM
[8] = second compound 0.1 µM, first compound 0.1 µM
[9] = second compound 0.1 µM, first compound 0.316 µM
[10] = second compound 0.1 µM, first compound 1 µM
[11] = second compound 0.1 µM, first compound 3.16 µM
[12] = second compound 0.1 µM, first compound 10 µM
[13] = second compound 0.316 µM, first compound 0.0316 µM
[14] = second compound 0.316 µM, first compound 0.1 µM
[15] = second compound 0.316 µM, first compound 0.316 µM
[16] = second compound 0.316 µM, first compound 1 µM
[17] = second compound 0.316 µM, first compound 3.16 µM
[18] = second compound 0.316 µM, first compound 10 µM
[19] = second compound 1 µM, first compound 0.0316 µM
[20] = second compound 1 µM, first compound 0.1 µM
[21] = second compound 1 µM, first compound 0.316 µM
[22] = second compound 1 µM, first compound 1 µM
[23] = second compound 1 µM, first compound 3.16 µM
[24] = second compound 1 µM, first compound 10 µM
[25] = second compound 3.16 µM, first compound 0.0316 µM
[26] = second compound 3.16 µM, first compound 0.1 µM
[27] = second compound 3.16 µM, first compound 0.316 µM
[28] = second compound 3.16 µM, first compound 1 µM
[29] = second compound 3.16 µM, first compound 3.16 µM
[30] = second compound 3.16 µM, first compound 10 µM
[31] = second compound 10 µM, first compound 0.0316 µM
[32] = second compound 10 µM, first compound 0.1 µM
[33] = second compound 10 µM, first compound 0.316 µM
[34] = second compound 10 µM, first compound 1 µM
[35] = second compound 10 µM, first compound 3.16 µM
[36] = second compound 10 µM, first compound 10 µM
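Further: spheroids exposed to compounds for seven days.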
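Wherever viability, T/C is given: 100% = DMSO vehicle control viability.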

Which IC50 (second compound 0.0316 µM) does the source give for `CCc1cc2c(N3CCc4c(cc(Cn5ccnc5)cc4-c4cn(C)nc4C(F)(F)F)C3=O)ccnc2c(OC)n1` + Nc1ccc(C#CCN(C(=O)Cc2ncc(C(F)(F)F)cc2C(F)(F)F)c2ccc(F)cc2)nn1 here?
The IC50 was greater than 10 µM.

What about the IC50 (second compound 0.1 µM) of the same molecule?
Its IC50 is greater than 10 µM.

What about the IC50 (second compound 0.316 µM) of the same molecule?
The IC50 was greater than 10 µM.

What about the IC50 (second compound 1 µM) of the same molecule?
The IC50 was greater than 10 µM.

And the IC50 (second compound 3.16 µM)?
Its IC50 is greater than 10 µM.

And the IC50 (second compound 10 µM)?
The IC50 was greater than 10 µM.

What about the viability, T/C [1] of the same molecule?
The viability, T/C was 92.7%.

And the viability, T/C [2]?
The viability, T/C was 98.8%.

And the viability, T/C [3]?
Its viability, T/C is 102%.

And the viability, T/C [4]?
The viability, T/C was 106%.

What about the viability, T/C [5] of the same molecule?
The viability, T/C was 94.1%.

What about the viability, T/C [6] of the same molecule?
Its viability, T/C is 111%.

And the viability, T/C [7]?
Its viability, T/C is 75.9%.

What about the viability, T/C [8] of the same molecule?
The viability, T/C was 73.9%.

What about the viability, T/C [9] of the same molecule?
Its viability, T/C is 72.2%.

And the viability, T/C [10]?
Its viability, T/C is 77.1%.

What about the viability, T/C [11] of the same molecule?
Its viability, T/C is 107%.

What about the viability, T/C [12] of the same molecule?
The viability, T/C was 115%.

And the viability, T/C [13]?
The viability, T/C was 90.3%.

What about the viability, T/C [14] of the same molecule?
The viability, T/C was 78.8%.

What about the viability, T/C [15] of the same molecule?
The viability, T/C was 86.3%.

What about the viability, T/C [16] of the same molecule?
The viability, T/C was 90.1%.

And the viability, T/C [17]?
Its viability, T/C is 111%.

And the viability, T/C [18]?
Its viability, T/C is 87.4%.

What about the viability, T/C [19] of the same molecule?
Its viability, T/C is 104%.

What about the viability, T/C [20] of the same molecule?
The viability, T/C was 75.7%.

And the viability, T/C [21]?
Its viability, T/C is 84.1%.

What about the viability, T/C [22] of the same molecule?
The viability, T/C was 90.5%.

What about the viability, T/C [23] of the same molecule?
Its viability, T/C is 102%.

And the viability, T/C [24]?
The viability, T/C was 108%.

What about the viability, T/C [25] of the same molecule?
Its viability, T/C is 103%.

And the viability, T/C [26]?
The viability, T/C was 92.7%.

And the viability, T/C [27]?
Its viability, T/C is 88.8%.

And the viability, T/C [28]?
The viability, T/C was 109%.

What about the viability, T/C [29] of the same molecule?
Its viability, T/C is 96.7%.

And the viability, T/C [30]?
The viability, T/C was 123%.

What about the viability, T/C [31] of the same molecule?
Its viability, T/C is 95.5%.

And the viability, T/C [32]?
The viability, T/C was 106%.

And the viability, T/C [33]?
The viability, T/C was 113%.

What about the viability, T/C [34] of the same molecule?
Its viability, T/C is 108%.

And the viability, T/C [35]?
The viability, T/C was 138%.

What about the viability, T/C [36] of the same molecule?
Its viability, T/C is 127%.

Which results are given for `O=C(c1cc(Cc2n[nH]c(=O)c3ccccc23)ccc1F)N1CCN(C(=O)C2CC2)CC1` + COC1C(OC(N)=O)C(O)C(Oc2ccc3c(O)c(NC(=O)c4ccc(O)c(CC=C(C)C)c4)c(=O)oc3c2C)OC1(C)C?
IC50 (second compound 0.0316 µM): > 10 µM; IC50 (second compound 0.1 µM): > 10 µM; IC50 (second compound 0.316 µM): > 10 µM; IC50 (second compound 1 µM): > 10 µM; IC50 (second compound 3.16 µM): > 10 µM; IC50 (second compound 10 µM): > 10 µM; viability, T/C [1]: 128%; viability, T/C [2]: 97.7%; viability, T/C [3]: 105%; viability, T/C [4]: 106%; viability, T/C [5]: 79.1%; viability, T/C [6]: 103%; viability, T/C [7]: 109%; viability, T/C [8]: 120%; viability, T/C [9]: 90.5%; viability, T/C [10]: 87.8%; viability, T/C [11]: 105%; viability, T/C [12]: 101%; viability, T/C [13]: 107%; viability, T/C [14]: 90.1%; viability, T/C [15]: 99.1%; viability, T/C [16]: 97.7%; viability, T/C [17]: 117%; viability, T/C [18]: 98%; viability, T/C [19]: 116%; viability, T/C [20]: 94.7%; viability, T/C [21]: 103%; viability, T/C [22]: 119%; viability, T/C [23]: 106%; viability, T/C [24]: 96%; viability, T/C [25]: 98.8%; viability, T/C [26]: 108%; viability, T/C [27]: 113%; viability, T/C [28]: 103%; viability, T/C [29]: 107%; viability, T/C [30]: 98.8%; viability, T/C [31]: 94%; viability, T/C [32]: 99.4%; viability, T/C [33]: 102%; viability, T/C [34]: 110%; viability, T/C [35]: 96%; viability, T/C [36]: 80.8%

With `C#Cc1c(F)ccc2cc(O)cc(-c3ncc4c(N5CC6CCC(C5)N6)nc(OCC56CCCN5CC(F)C6)nc4c3F)c12` (stereo unspecified) + COC1C(OC(N)=O)C(O)C(Oc2ccc3c(O)c(NC(=O)c4ccc(O)c(CC=C(C)C)c4)c(=O)oc3c2C)OC1(C)C as the molecule, how does the IC50 (second compound 0.0316 µM) read?
The IC50 was greater than 10 µM.

And the IC50 (second compound 0.1 µM)?
The IC50 was greater than 10 µM.

And the IC50 (second compound 0.316 µM)?
Its IC50 is greater than 10 µM.

And the IC50 (second compound 1 µM)?
Its IC50 is greater than 10 µM.

What about the IC50 (second compound 3.16 µM) of the same molecule?
Its IC50 is greater than 10 µM.

What about the IC50 (second compound 10 µM) of the same molecule?
The IC50 was greater than 10 µM.

What about the viability, T/C [1] of the same molecule?
The viability, T/C was 111%.

What about the viability, T/C [2] of the same molecule?
Its viability, T/C is 115%.

And the viability, T/C [3]?
The viability, T/C was 108%.

What about the viability, T/C [4] of the same molecule?
Its viability, T/C is 117%.

What about the viability, T/C [5] of the same molecule?
Its viability, T/C is 88.8%.

What about the viability, T/C [6] of the same molecule?
The viability, T/C was 96.9%.

And the viability, T/C [7]?
The viability, T/C was 94.4%.

What about the viability, T/C [8] of the same molecule?
The viability, T/C was 113%.

What about the viability, T/C [9] of the same molecule?
Its viability, T/C is 107%.

And the viability, T/C [10]?
Its viability, T/C is 90%.

What about the viability, T/C [11] of the same molecule?
Its viability, T/C is 96.9%.

What about the viability, T/C [12] of the same molecule?
Its viability, T/C is 88.1%.

And the viability, T/C [13]?
The viability, T/C was 94%.

What about the viability, T/C [14] of the same molecule?
The viability, T/C was 120%.

What about the viability, T/C [15] of the same molecule?
The viability, T/C was 93.7%.

And the viability, T/C [16]?
The viability, T/C was 91.5%.

And the viability, T/C [17]?
The viability, T/C was 92.6%.

What about the viability, T/C [18] of the same molecule?
Its viability, T/C is 85.6%.

And the viability, T/C [19]?
The viability, T/C was 104%.

And the viability, T/C [20]?
Its viability, T/C is 96.5%.

What about the viability, T/C [21] of the same molecule?
The viability, T/C was 98.9%.

What about the viability, T/C [22] of the same molecule?
Its viability, T/C is 82.5%.

What about the viability, T/C [23] of the same molecule?
The viability, T/C was 112%.

And the viability, T/C [24]?
Its viability, T/C is 87.8%.

And the viability, T/C [25]?
The viability, T/C was 104%.

What about the viability, T/C [26] of the same molecule?
Its viability, T/C is 88.3%.

And the viability, T/C [27]?
Its viability, T/C is 95.4%.

What about the viability, T/C [28] of the same molecule?
Its viability, T/C is 82.3%.

And the viability, T/C [29]?
Its viability, T/C is 92.1%.

What about the viability, T/C [30] of the same molecule?
The viability, T/C was 87.7%.

And the viability, T/C [31]?
The viability, T/C was 100%.

What about the viability, T/C [32] of the same molecule?
Its viability, T/C is 91.2%.

What about the viability, T/C [33] of the same molecule?
The viability, T/C was 102%.

And the viability, T/C [34]?
The viability, T/C was 93.7%.

And the viability, T/C [35]?
Its viability, T/C is 74.8%.

And the viability, T/C [36]?
Its viability, T/C is 86.8%.
